Experimental findings from ChEMBL document CHEMBL1155088, “A new sesquiterpene lactone from the roots of Saussurea lappa: structure-anticancer activity study” (Bioorg Med Chem Lett, 2008) are described below.

Each structure is given as a SMILES string. ≈ marks a conversion by molar mass, not a printed value. Calls of active or inactive are those of the source. The rule behind the calls is not given here.

Common to all, as to type: functional, cell-based
In one assay the test system is A-431. Kind of assay: Cytotoxicity against human A431 cells after 48 hrs by MTT assay. In general terms: Tetrazolium dyes change colour on reduction, which living cells bring about.
A further assay has as its system MCF7. Kind of assay: Cytotoxicity against human MCF7 cells after 48 hrs by MTT assay. To be noted: MCF7, 48 h.
The next assay relates to A549. Description: Cytotoxicity against human A549 cells after 48 hrs by MTT assay.
In the next assay the test system is COLO 205. Description: Cytotoxicity against human COLO205 cells after 48 hrs by MTT assay. The following applies: for IC50: COLO 205, 48 h.

As a reminder, the IC50 is the concentration at which inhibition is half-maximal. The low end stands for inhibition by little substance, the high end for a need for much substance. For `COC[C@@H]1C(=O)O[C@H]2[C@H]1CC[C@@]1(C)CCCC(=O)[C@H]21`, the outcome in the assay on A-431, in the assay on A549 and in the assay on COLO 205 was inactive. In the assay with MCF7, the half-maximal inhibitory concentration (IC50) stood at 103 µg/mL (≈ 388 µM).

`COC[C@@H]1C(=O)O[C@@H]2/C=C(\C)CC/C=C(\C)CC[C@@H]12`: the outcome in the assay on A-431 and with A549 was inactive. In addition, the IC50 in the assay on MCF7 is 75 µg/mL (≈ 284 µM); with COLO 205, 220 µg/mL (≈ 832 µM).

In the case of `COC[C@@H]1C(=O)O[C@H]2[C@H]1CC[C@@]1(C)CCCC3(OCOO3)[C@H]21` (some centres undefined), the result with A-431, with A549 and with COLO 205 was inactive. The compound also displayed an IC50 with MCF7 of 180 µg/mL (≈ 577 µM).

Regarding `C=C1C(=O)O[C@@H]2/C=C(\C)CCC[C@H](C)CC[C@H]12` [ISODIHYDROCOSTUNOLIDE], the IC50 in the assay on A-431 (A-431, 48 h) was 107 µg/mL (≈ 457 µM); in the assay on MCF7 it was 35 µg/mL (≈ 150 µM); in the assay with A549 (A549, 48 h) it was 125 µg/mL (≈ 533 µM); in the assay with COLO 205, 27 µg/mL (≈ 115 µM).

As for `C/C1=C\[C@H]2OC(=O)[C@@H](C)[C@@H]2CC/C(C)=C/CC1` [DIHYDRO COSTUNOLIDE], the outcome in the assay on A-431 and in the assay on A549 was inactive. The IC50 with MCF7 was 57.9 µg/mL (≈ 247 µM); in the assay on COLO 205, 134 µg/mL (≈ 572 µM).

For `C=C1CCC[C@]2(C)CC[C@@H]3[C@H](OC(=O)[C@H]3COC)[C@@H]12`, the result in the assay with A-431 and in the assay with A549 was inactive. In addition, the IC50 with MCF7 was 88.5 µg/mL (≈ 335 µM); in the assay with COLO 205, 110 µg/mL (≈ 415 µM).
